The results in this text go back to ChEMBL document CHEMBL3407431, “Structure-based modification of 3-/4-aminoacetophenones giving a profound change of activity on tyrosinase: from potent activators to highly efficient inhibitors” (Eur J Med Chem, 2015).

pIC50: −log10 of the molar value. The source made the active and inactive calls. No cut-off for these calls is given here.

One test deals with T1, Tyrosinase (Agaricus bisporus) (UniProt O42713).
T1 sequence (whole entry): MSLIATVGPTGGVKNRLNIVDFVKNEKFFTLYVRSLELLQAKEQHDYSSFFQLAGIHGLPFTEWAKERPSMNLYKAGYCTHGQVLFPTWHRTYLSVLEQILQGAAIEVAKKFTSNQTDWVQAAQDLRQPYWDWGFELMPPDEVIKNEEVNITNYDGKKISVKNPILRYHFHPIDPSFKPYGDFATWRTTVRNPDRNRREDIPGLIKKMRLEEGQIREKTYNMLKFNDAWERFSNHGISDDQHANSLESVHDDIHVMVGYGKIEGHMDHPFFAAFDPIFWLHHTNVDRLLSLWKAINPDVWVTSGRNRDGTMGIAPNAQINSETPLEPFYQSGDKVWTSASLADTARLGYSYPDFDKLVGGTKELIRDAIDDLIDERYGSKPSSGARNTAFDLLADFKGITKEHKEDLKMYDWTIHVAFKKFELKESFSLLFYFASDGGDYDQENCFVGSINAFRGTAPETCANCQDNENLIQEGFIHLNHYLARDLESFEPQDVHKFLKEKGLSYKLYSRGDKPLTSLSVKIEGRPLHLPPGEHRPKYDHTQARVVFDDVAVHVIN
The test is described as follows: Reversible inhibition of mushroom tyrosinase using L-DOPA as substrate at 1 to 2 uM.
On to `C/C(=N\NC(N)=S)c1cccc(NC(=O)c2ccccc2)c1`, for which the inhibition result was “Active”.

The next test addresses T2, Tyrosinase (Agaricus bisporus, UniProt O42713).
T2 sequence (O42713 whole entry): T1 sequence (whole entry)
Description: Inhibition of mushroom tyrosinase diphenolase activity using L-DOPA as substrate preincubated for 30 mins followed by substrate addition measured for 1 min
Usually pIC50 stands for the IC50 on a negative log10 scale, so that one unit is a factor of ten. Compound `C/C(=N\NC(N)=S)c1ccc(NC(=O)c2ccccc2)cc1` showed a negative-log IC50 (pIC50) of 6.54.

For `CCCC(=O)Nc1ccc(/C(C)=N/NC(N)=S)cc1`, the pIC50 is 6.19.

`CC(=O)Nc1cccc(/C(C)=N/NC(N)=S)c1`: the pIC50 was 5.39. This pIC50 is 0.80 log units lower than that of the compound before.

The compound `CCCCCCC(=O)Nc1cccc(/C(C)=N/NC(N)=S)c1` had a pIC50 of 5.66.

Turning to `C/C(=N\NC(N)=S)c1cccc(NC(=O)c2ccccc2)c1`, the pIC50 was 5.82.

The compound `C/C(=N\NC(N)=S)c1ccc(NC(=O)C(C)C)cc1` showed a pIC50 of 6.09.

The compound `C/C(=N\NC(N)=S)c1ccc(NC(=O)C(Cl)(Cl)Cl)cc1` had a pIC50 of 6.39.

`C/C(=N\NC(N)=S)c1cccc(N)c1` gave a negative-log IC50 (pIC50) of 5.21.

`CCC(=O)Nc1ccc(/C(C)=N/NC(N)=S)cc1`: the negative-log IC50 (pIC50) was 6.43.

`C/C(=N\NC(N)=S)c1ccc(NC(=O)Cc2ccccc2)cc1` showed a pIC50 of 6.24.

Turning to `C/C(=N\NC(N)=S)c1cccc(NC(=O)Cc2ccccc2)c1`, the pIC50 was 5.75.

`C/C(=N\NC(N)=S)c1ccc(NC(=O)c2ccc(F)cc2)cc1` gave a pIC50 of 6.21.

Compound `COC(=O)Nc1ccc(/C(C)=N/NC(N)=S)cc1` showed a pIC50 of 6.30.

Compound `CCCCCC(=O)Nc1ccc(/C(C)=N/NC(N)=S)cc1` had a pIC50 of 6.12.

As to `COc1ccc(C(=O)Nc2ccc(/C(C)=N/NC(N)=S)cc2)cc1`, the pIC50 was 5.94.

In turn, `C/C(=N\NC(N)=S)c1cccc(NC(=O)C(C)(C)C)c1` had a pIC50 of 5.36. Against the preceding compound, the pIC50 is 0.58 log units lower.

`CCCCCCC(=O)Nc1ccc(/C(C)=N/NC(N)=S)cc1` showed a pIC50 of 6.45. Against the preceding compound, the pIC50 is 1.09 log units higher.

`CCCCC(=O)Nc1ccc(/C(C)=N/NC(N)=S)cc1`: the pIC50 is 6.31. The pIC50 values of the last two compounds are within 0.2 log units of each other.

`CC(=O)Nc1ccc(/C(C)=N/NC(N)=S)cc1` had a negative logarithm of the IC50 (pIC50) of 6.29.

For the compound `CCCCC(=O)Nc1cccc(/C(C)=N/NC(N)=S)c1`, the pIC50 was 5.81.

For `CCCCCC(=O)Nc1cccc(/C(C)=N/NC(N)=S)c1`, the negative logarithm of the IC50 (pIC50) was 5.77.

Turning to `C/C(=N\NC(N)=S)c1cccc(NC(=O)C(C)C)c1`, the pIC50 is 5.44.

Turning to `C/C(=N\NC(N)=S)c1cccc(NC(=O)C(F)(F)F)c1`, the pIC50 is 5.24. This pIC50 is 0.20 log units lower than that of the compound before.

As for `C/C(=N\NC(N)=S)c1ccc(NC(=O)C(F)(F)F)cc1`, the pIC50 was 5.87.

Compound `C/C(=N\NC(N)=S)c1ccc(N)cc1` gave a pIC50 of 5.58. This pIC50 lies 0.29 log units lower than the previous one.

Another test concerns the target T1, Tyrosinase (Agaricus bisporus). The test is described as follows: Non-competitive inhibition of mushroom tyrosinase using L-DOPA as substrate at 0.1 to 0.5 uM by Lineweaver-Burk plot analysis.
For the compound `C/C(=N\NC(N)=S)c1ccc(NC(=O)c2ccccc2)cc1`, the inhibition result is “Active”.

Another test shares this target. The test is described as follows: Reversible inhibition of mushroom tyrosinase using L-DOPA as substrate at 0.1 to 0.5 uM.
As to `C/C(=N\NC(N)=S)c1ccc(NC(=O)c2ccccc2)cc1`, the inhibition entry was “Active”.

The target is the same in a further test. The test is described as follows: Competitive-uncompetitive mixed-2 type inhibition of mushroom tyrosinase using L-DOPA as substrate at 1 to 2 uM by Lineweaver-Burk plot analysis.
Consider `C/C(=N\NC(N)=S)c1cccc(NC(=O)c2ccccc2)c1`, for which the inhibition entry was “Active”.

The target is the same in the next test. The test is described as follows: Activation of mushroom tyrosinase using L-DOPA as substrate at 100 umol/L preincubated for 30 mins followed by substrate addition measured for 1 min.
Turning to `CC(=O)Nc1ccc(C(C)=O)cc1`, the result was Active.

The next test has the same target. The test is described as follows: Activation of mushroom tyrosinase at 0.12 to 75 ug/L relative to control.
With `OC[C@H]1O[C@@H](Oc2c(O)cc(O)cc2/C=C/c2ccc(O)cc2)[C@H](O)[C@@H](O)[C@@H]1O`, the Activity is 12%.
